Series [1] in a line: Hygroscopicity of the crystals. Format: physicochemical.
A short description of series [2]: Recrystallization from various organic solvents, crystalline form by XRPD. Format: physicochemical. The following applies: XRPD analysis. The source says:
The process for the preparation of novel tiotropium salts with 10-camphorsulphonic acid and with single optical isomers thereof as well as monohydrates of the salts according to the present invention allows to obtain the desired product as stable, non-hygroscopic crystals, with high yield and with purity acceptable for being used in pharmaceutical compositions. Stability of crystalline anhydrous tiotropium salts with 1R-(−)-10-camphorsulphonic and 1S-(+)-10-camphorsulphonic acids was confirmed experimentally. […] Therefore, no transformation or modification of a crystalline salt takes place.
XRPD patterns were obtained using Rigaku MiniFlex X-ray diffractometer, with Cu Kα radiation, filter Kβ. Lamps parameters were set at 30 kV and 15 mA. Divergence and scattering slits were set at 4.2°, and a receiving slit was set at 0.3 mm. Deflection of rays was detected with scintillation detector NaI. The θ/2θ continuous scan at 1°/min with a step of 0.02° from 2.0 to 40° 2θ was used. The samples were prepared by pressing the solid in a quartz holder.

From US20120065226A1, “SALTS OF […] 10-CAMPH[…]” (ADAMED SP Z O.O., priority 2009, published 2012) come the findings set out here.

Structures can show the parent of a compound that is named as a salt.

Take `CC1(C)C2CC[C@@]1(CS(=O)(=O)[O-])C(=O)C2.C[N+]1(C)C2CC(OC(=O)C(O)(c3cccs3)c3cccs3)CC1C1OC12.O` (stereo not drawn) [Crystalline monohydrate of tiotropium salt with 1S-(+)-10-camphorsulphonic acid]: the hygroscopicity entry in series [1] is “non-hygroscopic”. With `C[N+]1(C)C2CC(OC(=O)C(O)(c3cccs3)c3cccs3)CC1C1OC12` (stereo not drawn) [Tiotropium salt with 1R-(−)-10-camphorsul-phonic acid, anhyd] [Tiotropium salt with 1R-(−)-10-camphorsulphonic acid (anhydrous)], in series [2], the “crystalline form after recrystallization” value is given as “initial crystalline form”.

Take `CC1(C)C2CC[C@]1(CS(=O)(=O)[O-])C(=O)C2.C[N+]1(C)C2CC(OC(=O)C(O)(c3cccs3)c3cccs3)CC1C1OC12.O` (stereo not drawn) [Crystalline monohydrate of tiotropium salt with 1R-(−)-10-camphorsulphonic acid]: the hygroscopicity result in series [1] is on record as “non-hygroscopic”. Take `C[N+]1(C)C2CC(OC(=O)C(O)(c3cccs3)c3cccs3)CC1C1OC12` (stereo not drawn) [Tiotropium salt with 1S-(+)-10-camphorsul-phonic acid, anhyd] [Tiotropium salt with 1S-(+)-10-camphorsulphonic acid (anhydrous)]: the “crystalline form after recrystallization” value in series [2] is recorded as “initial crystalline form”.
